We go through 18 compounds from PubChem BioAssay AID206 (DTP/NCI, 2004).

The test system of this assay is nude mice, HT29 intrarenal xenograft, tumor weight T/C. The experiment in a line: NCI In Vivo Anticancer Drug Screen. Data for tumor model HT29;CX-1 Human Adenocarcinoma (MER+) (intrarenal inoculation) in NU/NU Swiss (nude) mice. Conditions: endpoint: mean tumor weight change, higher = larger tumour. The procedure, abridged:
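Mice with transplanted tumors are dosed with compound while controls get vehicle only. Survival or tumor burden is then assessed per group, and the treated value is expressed relative to control.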

Setting [1] is: dose: 50.0 mg/kg/injection, schedule: Q01DX010 (sc), vehicle: saline with Tween-80.
[2] abbreviates: dose: 100.0 mg/kg/injection, schedule: Q01DX010 (sc), vehicle: saline with Tween-80.
Setting [3] is: dose: 150.0 mg/kg/injection, schedule: Q04DX004 (sc), vehicle: saline with Tween-80.
Where [4] appears, read: dose: 600.0 mg/kg/injection, schedule: Q04DX004 (sc), vehicle: saline with Tween-80.
The mark [5] stands for this setting: dose: 1200.0 mg/kg/injection, schedule: Q04DX004 (sc), vehicle: saline with Tween-80.
The mark [6] stands for this setting: dose: 300.0 mg/kg/injection, schedule: Q04DX004 (sc), vehicle: saline with Tween-80.

Values joined by “and” are separate entries in the source; they are usually repeats but may differ in a detail not shown here. Identical values can stand only once. Records with an inconclusive call do not appear.

As to `ClCC[N+]12CC[N+](CCCl)(CC1)C2`, the T/C under setting [1] is 37 % of control; the T/C (dose: 75.0 mg/kg/injection, schedule: Q04DX004 (sc), vehicle: water) is 101 % of control; the T/C under setting [2] was 90 % of control; the T/C (dose: 150.0 mg/kg/injection, schedule: Q04DX004 (sc), vehicle: water) is 107 % of control; the T/C (dose: 200.0 mg/kg/injection, schedule: Q01DX010 (sc), vehicle: saline with Tween-80) was 96 % of control; the T/C (dose: 300.0 mg/kg/injection, schedule: Q04DX004 (sc), vehicle: water) is 98 % of control and 101 % of control. The T/C (dose: 600.0 mg/kg/injection, schedule: Q04DX004 (sc), vehicle: water) is 43 % of control.
With `COc1cc(C(=O)N/N=C/c2cccc([N+](=O)[O-])c2)cc(OC)c1OC`, the T/C is 91 % of control under setting [3], 70 % of control under setting [4] and 120 % of control under setting [5].
As to `CCCCNC(C)[C@]1(O)Cc2c(O)c3c(c(O)c2[C@@H](OC2CC(N)C(O)C(C)O2)C1)C(=O)c1c(OC)cccc1C3=O` (stereo partly drawn), the T/C runs as follows: (dose: 3.12 mg/kg/injection, schedule: Q01DX010 (sc), vehicle: saline) 179 % of control; (dose: 12.5 mg/kg/injection, schedule: Q01DX010 (sc), vehicle: saline) 103 % of control; (dose: 25.0 mg/kg/injection, schedule: Q01DX010 (sc), vehicle: saline) 94 % of control.
`CC[C@](C)(O)C(=O)O[C@H]1C(=O)O[C@@H]2C[C@H]3C(C)=CC(=O)[C@@H](O)[C@]3(C)[C@H]3[C@@]4(O)OC[C@]32[C@@H]1[C@@H](C)[C@H]4O`: the T/C reads like this: (dose: 0.25 mg/kg/injection, schedule: Q01DX010 (sc), vehicle: Klucel (hydroxypropylcellulose) (HPC)) 55 % of control; (dose: 0.5 mg/kg/injection, schedule: Q01DX010 (sc), vehicle: Klucel (hydroxypropylcellulose) (HPC)) 80 % of control; (dose: 1.0 mg/kg/injection, schedule: Q01DX010 (sc), vehicle: Klucel (hydroxypropylcellulose) (HPC)) 61 % of control; (dose: 2.0 mg/kg/injection, schedule: Q01DX010 (sc), vehicle: Klucel (hydroxypropylcellulose) (HPC)) 73 % of control.
As for `CS(=O)(=O)OCCN(CCOS(C)(=O)=O)c1ccc(C=Nc2ccc(-c3csc(COc4ccccc4)n3)cc2)cc1`, the T/C runs as follows: (dose: 50.0 mg/kg/injection, schedule: Q01DX010 (sc), vehicle: Klucel (hydroxypropylcellulose) (HPC)) 72 % of control; (dose: 100.0 mg/kg/injection, schedule: Q01DX010 (sc), vehicle: Klucel (hydroxypropylcellulose) (HPC)) 44 % of control.
Take `CC[N](CC)[Ge]([CH2]C)[CH2]C.CC[N](CC)[Ge]([CH2]C)[CH2]C`: the T/C reads like this: (dose: 12.5 mg/kg/injection, schedule: Q01DX010 (sc), vehicle: suspension in saline) 226 % of control; (dose: 25.0 mg/kg/injection, schedule: Q01DX010 (sc), vehicle: suspension in saline) 158 % of control.
`COc1cc2c(c(OC)c1OC)-c1c(cc3c(c1OC)OCO3)CC(C)C(C)(O)C2OC(=O)c1ccccc1` (stereo not drawn): where the note is “dose: 75.0 mg/kg/injection, schedule: Q04DX004 (sc), vehicle: saline + alcohol”, the T/C is 63 % of control.
`COc1cccc2c1C(=O)c1c(O)c3c(c(O)c1C2=O)C[C@@](O)(C(=O)CO)C[C@@H]3OC1CC(N)C(O)C(C)O1` (stereo partly drawn): the T/C is -27 % of control (dose: 0.25 mg/kg/injection, schedule: Q01DX010 (ip), vehicle: water); 62 % of control (dose: 0.5 mg/kg/injection, schedule: Q01DX010 (sc), vehicle: saline); 30 % of control and 32 % of control (dose: 1.0 mg/kg/injection, schedule: Q01DX010 (sc), vehicle: saline); 96 % of control (dose: 1.5 mg/kg/injection, schedule: Q01DX010 (sc), vehicle: saline); -20 % of control (dose: 2.0 mg/kg/injection, schedule: Q01DX010 (ip), vehicle: water); 15 % of control and 29 % of control (dose: 2.0 mg/kg/injection, schedule: Q01DX010 (sc), vehicle: saline). For the same compound, the T/C is 109 % of control (dose: 3.0 mg/kg/injection, schedule: Q01DX010 (sc), vehicle: saline); 4 % of control and 27 % of control (dose: 4.0 mg/kg/injection, schedule: Q01DX010 (sc), vehicle: saline); 102 % of control (dose: 6.0 mg/kg/injection, schedule: Q01DX010 (sc), vehicle: saline); 62 % of control (dose: 7.5 mg/kg/injection, schedule: Q04DX004 (sc), vehicle: saline).
As for `CCC1CN2C(=N1)c1ccccc1-c1cc(Cl)ccc12` (stereo not drawn), the T/C reads like this: (dose: 12.5 mg/kg/injection, schedule: Q01DX010 (sc), vehicle: saline with Tween-80) 74 % of control; (dose: 25.0 mg/kg/injection, schedule: Q01DX010 (sc), vehicle: saline with Tween-80) 37 % of control; under setting [1], 60 % of control; under setting [2], 89 % of control.
As to `COC(=O)CC(N)C(=O)O` (stereo not drawn), the T/C reads like this: (dose: 225.0 mg/kg/injection, schedule: Q04DX004 (sc), vehicle: saline with Tween-80) 103 % of control; (dose: 450.0 mg/kg/injection, schedule: Q04DX004 (sc), vehicle: saline with Tween-80) 81 % of control; (dose: 900.0 mg/kg/injection, schedule: Q04DX004 (sc), vehicle: saline with Tween-80) 69 % of control; (dose: 1800.0 mg/kg/injection, schedule: Q04DX004 (sc), vehicle: saline with Tween-80) 35 % of control.
As to `O=c1[nH]c(=O)n(C2OC(CO)C(O)C2O)cc1F` (stereo not drawn), the T/C (dose: 4.69 mg/kg/injection, schedule: Q04DX004 (sc), vehicle: saline) is 34 % of control.
Regarding `CC1=C(/C=C/C(C)=C/C=C/C(C)=C/C=O)C(C)(C)CCC1`, the T/C is 61 % of control under setting [3], 62 % of control under setting [6] and 67 % of control under setting [4].
Turning to `CC(/C=C/c1ccccc1)=Nc1ccccc1`, the T/C is 58 % of control (dose: 75.0 mg/kg/injection, schedule: Q04DX004 (sc), vehicle: saline with Tween-80); 98 % of control under setting [3]; 50 % of control under setting [6]; 63 % of control under setting [4].
With `COc1ccc(C(N)=O)cc1N=NN(C)C`, the T/C is 100 % of control (dose: 18.75 mg/kg/injection, schedule: Q04DX004 (sc), vehicle: Klucel (hydroxypropylcellulose) (HPC)); 31 % of control and 55 % of control (dose: 37.5 mg/kg/injection, schedule: Q04DX004 (sc), vehicle: Klucel (hydroxypropylcellulose) (HPC)); 45 % of control and 52 % of control and 70 % of control (dose: 75.0 mg/kg/injection, schedule: Q04DX004 (sc), vehicle: Klucel (hydroxypropylcellulose) (HPC)).
Turning to `O=c1[nH]c(=O)n(C2CC(O)C(CO)O2)cc1F` (stereo not drawn), the T/C reads like this: (dose: 25.0 mg/kg/injection, schedule: Q01DX010 (sc), vehicle: water) 65 % of control; (dose: 50.0 mg/kg/injection, schedule: Q01DX010 (sc), vehicle: water) 75 % of control.
Turning to `CN=C(N)N/N=C(\C)c1ccc2c(c1)Cc1ccccc1-2`, the T/C by setting is: under setting [3], 116 % of control; under setting [6], 91 % of control; under setting [4], 46 % of control; under setting [5], 81 % of control.
As to `C=C(NC(=O)C(=C)NC(=O)c1csc(C2=NC3c4csc(n4)C4NC(=O)c5csc(n5)C(C(C)(O)C(C)O)NC(=O)C5CSC(=N5)/C(=C/C)NC(=O)C(C(C)O)NC(=O)c5csc(n5)C3(CC2)NC(=O)C(C)NC(=O)C(=C)NC(=O)C(=C)NC(=O)C(C(C)C)NC2C=Cc3c(C(C)O)cc(nc3C2O)C(=O)OC4C)n1)C(N)=O` (stereo not drawn), the T/C runs as follows: (dose: 125.0 mg/kg/injection, schedule: Q04DX004 (sc), vehicle: suspension in saline) 789 % of control; (dose: 250.0 mg/kg/injection, schedule: Q04DX004 (sc), vehicle: suspension in saline) 419 % of control; (dose: 500.0 mg/kg/injection, schedule: Q04DX004 (sc), vehicle: saline) 59 % of control; (dose: 750.0 mg/kg/injection, schedule: Q04DX004 (sc), vehicle: saline) 97 % of control; (dose: 750.0 mg/kg/injection, schedule: Q04DX004 (sc), vehicle: suspension in saline) 73 % of control; (dose: 1000.0 mg/kg/injection, schedule: Q04DX004 (sc), vehicle: saline) 65 % of control. Also, the T/C is 91 % of control (dose: 1250.0 mg/kg/injection, schedule: Q04DX004 (sc), vehicle: saline) and 82 % of control (dose: 1250.0 mg/kg/injection, schedule: Q04DX004 (sc), vehicle: suspension in saline).
For the compound `CCOC(=O)c1c[nH]c2oc(/C=N/N3CC(CN4CCOCC4)OC3=O)cc2c1=O` (stereo not drawn), the T/C is, setting by setting: (dose: 50.0 mg/kg/injection, schedule: Q01DX010 (sc), vehicle: saline) 69 % of control; (dose: 100.0 mg/kg/injection, schedule: Q01DX010 (sc), vehicle: saline) 124 % of control; (dose: 200.0 mg/kg/injection, schedule: Q01DX010 (sc), vehicle: saline) 86 % of control.
